Entries after “also recorded” stand apart in the source; their conditions may differ.
Key:
hiPSC-CMs [1] = settings: hiPSC-CMs; alkaloids 2, 10, 50 μM, aconitine 1 μM; 24 h
Protocol: (§1) After plating for about 3 days, CMs matured and began to beat. At this time, different compounds were added, and experiments were performed 24 h after treatment. The experiments were grouped as follows: control group (normal medium); matrine, oxymatrine, sophocarpine, and cytisine treatment (2, 10, 50 μM) groups; and aconitine treatment (1 μM) group. The doses of toxicity studies above were determined by the effective therapeutic doses reported and included or exceeded the therapeutic dose.
CMs were incubated in 10% CCK-8 (Dojindo, Kumamoto, Japan) that was diluted in normal culture medium at 37 °C until a visual color conversion occurred. The absorbance of each well was measured using a microplate reader (Spectrafluor, TECAN, Sunrise, Austria) at 450 nm. Three individual experiments were performed. All samples were operated in duplicate.
A 96-well plate was used to seed hiPSC-CMs at a concentration of 5 × 10^4 cells per well. The cultured cells were treated with different concentrations of compounds and were incubated for another 48 h. CMs were digested with trypsin, and a small amount of cell suspension was added into the same amount of trypan blue solution. Countstar Automated Cell Counter IC1000 (Elite Life Sciences, Shanghai, China) was used to count the number of total and living cells. Data were presented as the mean ± SEM, n ≥ 3.

hiPSC-CMs [2] = assay: TUNEL staining (apoptosis); format: cell-based, human; settings: high dose of alkaloids, aconitine
Protocol: Supplementary file 13287_2018_1126_MOESM1_ESM.tif: Additional file 1: Figure S1. Effect of matrine, oxymatrine, cytisine, and sophocarpine on TUNEL staining in hiPSC-CMs. After treatment with matrine, oxymatrine, cytisine, and sophocarpine, the images of TUNEL fluorescence and bright field were acquired intuitively using IncuCyte™ S3 ZOOM cell imaging system and the fluorescence intensity was analyzed quantitatively using TissueQuest 6.0. […] The scale bar is 400 μm. Data are presented as the mean ± SEM, n ≥ 3. […] vs the control group. (TIF 23588 kb)

hiPSC-CMs [3] = assay: CK-MB and cardiac troponin I ELISA assay; format: cell-based, human; settings: alkaloids 2, 10, 50 μM, aconitine 1 μM
Protocol: as §1
Cell treatment method was the same as above. After the administration, the cells were digested and then destroyed by repeated freeze-thaw and sonication to release the components in the cells. Centrifuged at 2500 rpm for 20 min, the supernatant was collected for the detection of creatine kinase MB isoenzyme (CK-MB) and cardiac troponin I (CTn-I) ELISA kit (Expandbiotech, Beijing, China) following the manufacturer’s instructions. Data were presented as the mean ± SEM, n ≥ 3.

hiPSC-CMs [4] = format: cell-based, human; settings: hiPSC-CMs; high dose of alkaloids (50 μM), aconitine 1 μM
Protocol: Cells were incubated in a maintaining medium containing 10 μM DCFH-DA (Beyotime Biotechnology, Shanghai, China) for 30 min at 37 °C in the dark. The measurement of ROS was performed with IncuCyte™ S3 ZOOM cell imaging system (Essen BioScience, Ann Arbor, MI). TissueQuest 6.0 was used for the quantitative analysis of ROS formation. Data were presented as the mean ± SEM, n ≥ 3.

hiPSC-CMs [5] = settings: hiPSC-CMs; alkaloids 2, 10, 50 μM, aconitine 1 μM
Protocol: as §1
Cell treatment method was the same as above. After reaching the predetermined time, 120 μl of the supernatant of each well was taken for measuring LDH leakage using a commercially available kit (Beyotime Biotechnology, Shanghai, China) following the manufacturer’s instructions. Data were presented as the mean ± SEM, n ≥ 3.

GCaMP hESC-CMs = format: cell-based, human; settings: GCaMP hESC-CMs; high dose of alkaloids (50 μM), aconitine 1 μM
Protocol: The hESC-CMs in this experiment can express the GCaMP reporter gene by gene editing, and green fluorescence marker can be observed by a fluorescence microscope. The fluorescence intensity is proportional to Ca^2+ concentration. The CMs were seeded into 96-well plates at 5000/well and were administered the same as above. The fluorescence intensities of hESC-CMs were monitored using an IncuCyte™ S3 ZOOM cell imaging system (Essen BioScience, Ann Arbor, MI). Data were presented as the mean ± SEM, n ≥ 3.

Q: Which results are given for CCN1C[C@]2(COC)[C@H](O)C[C@H](OC)[C@@]34[C@@H]5C[C@@]6(O)[C@H](OC(=O)c7ccccc7)[C@@H]5[C@@](OC(C)=O)([C@@H]([C@H](OC)[C@H]23)[C@@H]14)[C@@H](O)[C@@H]6OC [aconitine, reference compound]?
A: Cell viability (in words) (hiPSC-CMs [1]): showed a great significance; TUNEL fluorescence staining (in words) (hiPSC-CMs [2]): huge increase; CK-MB level (in words) (hiPSC-CMs [3]): induced a large amount; also recorded: increased immensely; CTnI level (in words) (hiPSC-CMs [3]): induced a large amount; ROS fluorescence / ROS production (in words) (hiPSC-CMs [4]): induced excessive ROS production; LDH level in the supernatant (in words) (hiPSC-CMs [5]): induced a large amount; also recorded: increased immensely; Fluorescence intensity of calcium, [Ca^2+]i (in words) (GCaMP hESC-CMs): increased drastically

Source: publication PMC6330446, “An integrated characterization of contractile, electrophysiological, and structural cardiotoxicity of Sophora tonkinensis Gapnep. in human pluripotent stem cell-derived cardiomyocytes” (Stem Cell Research & Therapy, 2019)
